In article PMC7076525, “Pharmacokinetics and Intestinal Metabolism of Compound K in Rats and Mice” (Pharmaceutics, 2020):
Converted amounts (≈) assume the structure as drawn. “And” between values parts separate entries of the source, which are not always exact repeats. Identical values can stand only once. Like-named read-outs stand apart in the source and are kept apart here.

Tests used:
[1] = parameters: method as in PMID 16302287, PMID 32148404, PMID 30013338, PMID 26680316; details: cited from earlier work
[2] = parameters: method as in PMID 28955238; details: humans, cited from earlier work
[3] = Pharmacokinetics, biliary excretion and metabolism of compound K in bile cannulated and non-bile cannulated rats; format: in vivo, SD rats; details: for AUC(0-inf) / half-life / AUC(0-t) / C0: SD, rat, plasma, iv; for AUC(0-t): read-out: AUC12 h; for C0: read-out: C0 (initial plasma concentration)
Procedure: SD rats were randomly divided into two groups: the non-bile cannulated control group and the bile cannulated group. For the bile cannulated rats, the femoral artery, femoral vein, and bile duct were cannulated with polyethylene tubes (PE-50 and PE-10; Jungdo, Seoul, Korea) under light anesthesia with isoflurane. For the control group, the femoral artery and femoral vein were cannulated with PE-50. Compound K was injected intravenously via the femoral vein at 2 mg/kg. Blood samples (approximately 200 µL) were collected from the femoral artery at 0, 0.25, 0.5, 1, 2, 4, and 8 h after the compound K injection. After each blood sampling, normal saline was injected into the femoral vein to compensate for blood loss. Bile samples were collected every 2 h for a total of 12 h. The blood samples were centrifuged at 16,000× g for 10 min, and 50 μL aliquots of plasma and 50 μL aliquots of bile were stored at −80 °C until the compound K analysis. In the non-bile cannulated rats, the complete contents of the entire gastrointestinal tract were collected using a […] filled with 30 mL pre-warmed saline. The contents were homogenized with tissue homogenizer, and 50 μL aliquots of intestinal fecal homogenates were stored at −80 °C until the analysis. The 50 μL samples of plasma, urine, 10% fecal homogenates, bile, and intestinal fecal homogenates were each mixed with 60 μL of IS (20 ng/mL 13C-caffeine in water) and 600 μL of methyl tert-butyl ether (MTBE). The mixtures were vortexed vigorously for 10 min and centrifuged at 16,000× g for 5 min. After centrifugation, the samples were frozen at −80 °C for 2 h. […] The residue was reconfigured with 200 μL of 80% methanol consisting of 0.1% formic acid, and a 10 μL aliquot was injected into the liquid chromatography–tandem mass spectrometry (LC–MS/MS) system. Compound K and PPD concentrations were analyzed using a modified LC-MS/MS method of Jin et al. with an Agilent 6430 triple quadrupole LC-MS/MS system (Agilent, Wilmington, DE, USA). […] The mobile phase consisted of 0.1% formic acid in water (8%) and 0.1% formic acid in methanol (92%) at a flow rate of 0.15 mL/min. Pharmacokinetic parameters were estimated using non-compartmental methods (WinNonlin version 2.0, Pharsight Co., Certara, NJ, USA).

Caco-2 cells = system: Caco-2 cells; parameters: method as in PMID 16302287, PMID 32148404, PMID 30013338, PMID 26680316; details: cited from earlier work
[4] = Pharmacokinetic study after intravenous compound K (2 mg/kg) in SD rats: plasma, feces, urine; details: for Recovery48 h Feces: over 48 h (Table 4)
[5] = Pharmacokinetic study after intravenous compound K (2 mg/kg) in ICR mice: plasma, feces, urine
Oatp transporters [6] = assay: Inhibition of hepatic uptake of compound K by rifampin pre-treatment in SD rats; format: in vivo; details: rifampin 20 mg/kg PO 1 h before compound K IV 2 mg/kg, 0.5 and 2 h
Procedure: (§1) To investigate the effect of rifampin (a representative inhibitor of the organic anion-transporting polypeptide (Oatp) transporters) on the hepatic distribution of compound K, ICR mice and SD rats were randomly divided into either control or rifampin groups. The rifampin group was orally administered with rifampin solution (20 mg/kg, dissolved in DMSO: saline = 2:8, v/v) and the control group received only the vehicle via oral gavage. One hour after rifampin treatment, mice and rats received compound K intravenously at a single dose of 2 mg/kg via tail vein. The animals were euthanized and blood samples (approximately 200 µL) were collected from the abdominal artery at 0.5 and 2 h after intravenous injection. The liver tissues were immediately excised, gently washed with ice-cold saline, and homogenized with 4 volumes of saline. Aliquots (50 μL) of plasma and 20% liver homogenates were stored at −80 °C until the analysis of compound K.
(§2) The plasma samples and 20% tissue homogenates samples were each mixed with 60 μL of IS (20 ng/mL 13C-caffeine in water) and 600 μL of MTBE. The mixtures were vortexed vigorously for 10 min and centrifuged at 16,000× g for 5 min. After centrifugation, the samples were frozen at −80 °C for 2 h. The upper layer was transferred to a clean tube and evaporated to dryness under a nitrogen stream. […]

P-glycoprotein (P-gp) = system: P-glycoprotein (P-gp); parameters: method as in PMID 22584255; details: single oral dose 10 mg/kg; cited from earlier work
[7] = parameters: method as in PMID 16302287; details: rats, cited from earlier work
[8] = Tissue distribution study after intravenous compound K (2 mg/kg) in ICR mice; format: in vivo; details: compound K IV 2 mg/kg
Procedure: (§3) ICR mice and SD rats received compound K intravenously at a single dose of 2 mg/kg via tail vein and were returned to the metabolic cage with water and chow ad libitum. The animals were euthanized and blood samples (approximately 200 µL) were collected from the abdominal artery at 0.17, 0.5, 2, 4, 8, and 24 h after intravenous injection. The liver, kidney, brain, heart, lung, spleen, and testis were immediately excised, gently washed with ice-cold saline, and weighed. The tissue samples were homogenized with 4 volumes of saline. Aliquots (50 μL) of plasma and 20% tissue homogenates were stored at –80 °C until the analysis of compound K.
(§4) The plasma samples and 20% tissue homogenates samples were each mixed with 60 μL of IS (20 ng/mL 13C-caffeine in water) and 600 μL of MTBE. The mixtures were vortexed vigorously for 10 min and centrifuged at 16,000× g for 5 min. After centrifugation, the samples were frozen at −80 °C for 2 h. The upper layer was transferred to a clean tube and evaporated to dryness under a nitrogen stream. The residue was reconfigured with 200 μL of 80% methanol consisting of 0.1% formic acid, and a 10 μL aliquot was injected into the LC-MS/MS system.
(§5) Compound K and PPD concentrations were analyzed using a modified LC-MS/MS method of Jin et al. with an Agilent 6430 triple quadrupole LC-MS/MS system (Agilent, Wilmington, DE, USA). […]

Oatp transporters [9] = assay: Inhibition of hepatic uptake of compound K by rifampin pre-treatment in ICR mice; format: in vivo; details: rifampin 20 mg/kg PO 1 h before compound K IV 2 mg/kg, 0.5 and 2 h
Procedure: as §1, §2

[10] = Tissue distribution study after intravenous compound K (2 mg/kg) in SD rats; format: in vivo; details: compound K IV 2 mg/kg
Procedure: as §3, §4, §5

[11] = cited from earlier work
[12] = parameters: method as in PMID 22584255, PMID 30013338, PMID 26680316; details: cited from earlier work
[13] = single oral 200 mg compound K tablet, fasting
[14] = rat, after compound K IV 2 mg/kg
[15] = rats, after compound K IV 2 mg/kg
[16] = ICR, mouse, plasma, iv, 2 mg/kg
[17] = mice, after compound K IV 2 mg/kg
[18] = mouse, after compound K IV 2 mg/kg, over 48 h (Table 4)
[19] = 2 mg/kg, bile cannulated rat, compound K IV 2 mg/kg
[20] = 2 mg/kg, non-bile cannulated rat, compound K IV 2 mg/kg

Structure (SMILES): CC(C)=CCCC(C)(O)C1CCC2(C)C1C(O)CC1C3(C)CCC(O)C(C)(C)C3CCC12C [PPD, 20(S)-protopanaxadiol]
- LogP value [1]: 5.53
- Cmax [2, 13]: 5.7 ng/mL
- Tmax [2, 13]: 24.5 h
- AUC ratio of PPD to compound K ([2]; single oral 200 mg compound K tablet): 0.04
- presence in bile samples collected over 12 h ([3]; bile-cannulated rats, after compound K IV 2 mg/kg): without PPD
- detection in plasma samples ([3]; bile-cannulated rats, after compound K IV 2 mg/kg, 2 mg/kg): could not be detected
- detection in plasma samples at 8 h ([3]; control rats (non-bile cannulated), after compound K IV 2 mg/kg, not present in 2 h sample): detected
- amount in intestinal fecal samples, 12 h compared to 2 h ([3]; rats without bile cannulation, after compound K IV 2 mg/kg): greater in the 12 h samples compared to the 2 h samples
- permeability (Caco-2 cells): 1.15e-06 cm/s
- concentration at 48 h ([4]; SD, rat, plasma, iv, 2 mg/kg): < 5 ng/mL
- recovery of PPD relative to that of compound K in feces ([4]; rat feces, after compound K IV 2 mg/kg): 3.4 fold
- metabolic ratio (PPD to compound K ratio) in plasma ([4]; rat plasma, after compound K IV 2 mg/kg): 0.2–1.6
- Recovery48 h Feces [4, 14]: 46.6 ± 4.9 % of Dose
- detection in plasma and fecal samples [4, 15]: detected
- detection in urine samples [4, 15]: not detected
- concentration at 48 h [5, 16]: < 5 ng/mL
- detection in plasma and fecal samples [5, 17]: detected
- detection in urine samples [5, 17]: not detected
- recovery of PPD relative to that of compound K in feces ([5]; mouse feces, after compound K IV 2 mg/kg): 1.2 fold
- metabolic ratio (PPD to compound K ratio) in plasma ([5]; mouse plasma, after compound K IV 2 mg/kg): 0.02–0.08
- Recovery48 h Feces [5, 18]: 34.4 ± 5.8 % of Dose

Structure (SMILES): CC(C)=CCCC(C)(OC1OC(CO)C(O)C(O)C1O)C1CCC2(C)C1C(O)CC1C3(C)CCC(O)C(C)(C)C3CCC12C [compound K, 20-O-beta-(D-Glucopyranosyl)-20(S)-protopanaxadiol]
- liver to plasma concentration ratios with rifampin pre-treatment versus control (Oatp transporters [6]): decreased
- plasma concentration of compound K with rifampin pre-treatment versus control (Oatp transporters [6]): increased
- AUC increase in P-gp knock-out mice compared to wild-type mice (P-glycoprotein (P-gp)): 23.5 fold
- AUC increase ([7]; intravenous injection, dose range 1–10 mg/kg (dose increase 10-fold)): 11.6 fold
- AUC increase ([7]; oral administration, dose range 5–20 mg/kg (dose increase four-fold)): 75.8 fold
- LogP value [1]: 3.85
- AUC ratios of other tissues (kidney, heart, lung, pancreas, testis, brain) to plasma [8]: much lower than the liver/plasma AUC ratio
- Kp ([8]; male, ICR, mouse, liver (relative to plasma), 0.17-24 h, read-out: liver to plasma AUC ratio): 16.7
- liver to plasma concentration ratios with rifampin pre-treatment versus control (Oatp transporters [9]): decreased
- plasma concentration of compound K with rifampin pre-treatment versus control (Oatp transporters [9]): increased
- increase of AUC by high-fat meal compared with fasting group ([2]; 200 mg compound K tablet): 2.2 fold
- increase of Cmax by high-fat meal compared with fasting group ([2]; 200 mg compound K tablet): 2.0 fold
- AUC(0-inf) [3, 19]: 235 ± 126 ng·h/mL
- half-life [3, 19]: 0.78 ± 0.11 h
- AUC(0-t) [3, 19]: 211 ± 87.3 ng·h/mL
- C0 [3, 19]: 436 ± 326 ng/mL
- AUC(0-inf) [3, 20]: 517 ± 249 ng·h/mL
- half-life [3, 20]: 2.4 ± 0.61 h
- AUC(0-t) [3, 20]: 496 ± 253 ng·h/mL
- C0 [3, 20]: 451 ± 192 ng/mL
- Bile12 h (biliary excretion) ([3]; bile cannulated rat, compound K IV 2 mg/kg, bile collected for 12 h): 39.1 ± 5.7 % of dose
- elimination constant ([3]; bile-cannulated rats, one-compartment model, estimated using 5 points, r^2 0.92): 0.90 h⁻¹
- elimination constant ([3]; non-bile cannulated (control) rats, estimated using 3 points, r^2 0.94): 0.29 h⁻¹
- permeability (Caco-2 cells): 0.5–2 × 10^−6 cm/s
- AUC ratios of other tissues (kidney, heart, lung, pancreas, testis, brain) to plasma [10]: much lower than the liver/plasma AUC ratio
- Kp ([10]; male, SD, rat, liver (relative to plasma), 0.17-24 h, read-out: liver to plasma AUC ratio): 11.1
- AUC(0-inf) ([4]; SD, rat, plasma, iv, 2 mg/kg): 670 ± 284 ng·h/mL
- AUC(0-t) ([4]; SD, rat, plasma, iv, 2 mg/kg): 639 ± 299 ng·h/mL
- C0 ([4]; SD, rat, plasma, iv, 2 mg/kg): 75.3 ± 23.3 ng/mL
- MRT ([4]; SD, rat, plasma, iv, 2 mg/kg): 8.9 ± 0.4 h
- Vd ([4]; SD, rat, plasma, iv, 2 mg/kg): 31.8 ± 3.1 L/kg
- clearance ([4]; SD, rat, plasma, iv, 2 mg/kg): 59 ± 21.8 mL/min/kg
- half-life ([4]; SD, rat, plasma, iv, 2 mg/kg): 7.3 ± 0.4 h
- Recovery48 h Feces [4, 14]: 13.8 ± 7.1 % of Dose
- Feces48 h (fecal recovery) ([4]; rat, compound K IV 2 mg/kg, 48 h, 2 mg/kg): 13.8 % of dose and ~13.8 ± 7.1 % of dose
- CL and Vd, fold larger in rats than in mice ([4]; rats versus mice, compound K IV 2 mg/kg): about five-fold larger
- AUC(0-t) [5, 16]: 3760 ± 1640 ng·h/mL
- C0 [5, 16]: 400 ± 137 ng/mL
- MRT [5, 16]: 11.8 ± 2 h
- Vd [5, 16]: 7.08 ± 2.6 L/kg
- clearance [5, 16]: 10.4 ± 4.9 mL/min/kg
- half-life [5, 16]: 11.4 ± 1.5 h
- Recovery48 h Feces [5, 18]: 28.4 ± 5.9 % of Dose
- Recovery48 h Urine [5, 18]: 0.02 ± 0.01 % of Dose
- Cmax ([11]; 12 Japanese subjects, single oral fermented ginseng tablet (274.4 mg total; 2.2 mg as compound K)): 41.5 ng/mL
- Cmax ([11]; subjects given non-fermented Korean red ginseng extract (3 g total; 0 mg as compound K)): 3.2 to 24.8 ng/mL
- mean Cmax ([11]; subjects given oral fermented Korean red ginseng (3 g total; 10.9 mg as compound K)): 254.5 ng/mL
- aqueous solubility [12]: 33 µg/mL (≈ 53 µM)
